Experimental data taken from patent US8927500B2, “Peptidomimetic macrocycles” (Aileron Therapeutics, Inc., priority 2012, dated 2015).

Columns and labels:
MDM2 = MDM2 (Homo sapiens, UniProt Q00987); assay: Competitive fluorescence polarization assay for MDM2; format: binding; details: competitive FP assay, MDM2; for IC50: read-out: IC50 (MDM2); for Ki: read-out: Ki (MDM2)
MDMX = target: T1, MDMX (Homo sapiens, UniProt O15151); assay: Competitive fluorescence polarization assay for MDMX; format: binding; details: competitive FP assay; for IC50: read-out: IC50 (MDMX); for Ki: read-out: Ki (MDMX)
T1 sequence (O15151 1-125): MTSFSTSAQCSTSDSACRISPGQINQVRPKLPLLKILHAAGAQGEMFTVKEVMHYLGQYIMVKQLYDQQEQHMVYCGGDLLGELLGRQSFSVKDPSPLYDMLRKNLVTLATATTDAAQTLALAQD

Caspase 3 = Caspase 3 detection assay in SJSA1 cells; format: cell-based; details: 48 h, Caspase 3 activation over DMSO-treated cells; for caspase 0.3 uM: 0.3 uM peptide; for caspase 3 uM: 3 uM peptide; for caspase 10 uM: 10 uM peptide; for caspase 30 uM: 30 uM peptide
SJSA-1 cells = assay: Cell lysis by peptidomimetic macrocycles (LDH release); format: cell-based; details: 1 h at 37C

Chain of MDM2 (Q00987 1-125): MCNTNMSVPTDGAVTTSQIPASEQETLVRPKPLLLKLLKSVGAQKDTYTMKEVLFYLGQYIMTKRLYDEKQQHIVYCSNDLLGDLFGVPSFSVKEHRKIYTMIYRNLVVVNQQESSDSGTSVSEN

Row | SMILES | IC50 (MDM2) [µM] | Ki (MDM2) [µM] | IC50 (MDMX) [µM] | Ki (MDMX) [µM] | caspase 0.3 uM (Caspase 3) | caspase 3 uM (Caspase 3) | caspase 10 uM (Caspase 3) | caspase 30 uM (Caspase 3) | 6.25 uM % Lysed cells (1 h LDH) (SJSA-1 cells) [%] | 25 uM % Lysed cells (1 h LDH) (SJSA-1 cells) [%] | 50 uM % Lysed cells (1 h LDH) (SJSA-1 cells) [%]
1 | CCCC[C@H](NC(=O)[C@H](C)NC(=O)[C@H](C)NC(=O)[C@]1(C)CCCC=CCCCCCC[C@@](C)(NC(=O)[C@H](Cc2ccccc2)NC(=O)[C@@H](NC(=O)[C@H](CC(C)C)NC(C)=O)[C@@H](C)O)C(=O)N[C@@H](C)C(=O)N[C@@H](Cc2ccc(O)cc2)C(=O)N[C@@H](Cc2c[nH]c3ccccc23)C(=O)N[C@@H](C)C(=O)N[C@@H](C)C(=O)N[C@@H](CC(C)C)C(=O)N1)C(=O)N[C@@H](C(N)=O)C(C)C (single isomer, unassigned) [compound 80] | 0.01 to 0.1 | < 0.01 | 0.1 to 1 | 0.01 to 0.1 | 1 | 2 | 13 | 20 | 0 | 1 | 5
2 | CC(=O)N[C@@H](CC(C)C)C(=O)N[C@H](C(=O)N[C@@H](Cc1ccccc1)C(=O)N[C@]1(C)CCCCCCC=CCCC[C@@](C)(C(=O)N[C@@H](CO)C(=O)N[C@@H](CC(C)C)C(=O)N[C@@H](C)C(N)=O)NC(=O)[C@H](CC(C)C)NC(=O)[C@H](CCC(N)=O)NC(=O)[C@H](C)NC(=O)[C@H](Cc2c[nH]c3ccccc23)NC(=O)[C@H](Cc2ccc(O)cc2)NC(=O)[C@H](C)NC1=O)[C@@H](C)O (single isomer, unassigned) [compound 118] | < 0.01 | < 0.01 | 0.1 to 1 | 0.01 to 0.1 | 1 | 2 | 18 | 27 | 4 | 2 | 4
3 | CC(=O)N[C@@H](CC(C)C)C(=O)N[C@H](C(=O)N[C@@H](Cc1ccccc1)C(=O)N[C@]1(C)CCCCCCC=CCCC[C@@](C)(C(=O)N[C@@H](CO)C(=O)N[C@@H](Cc2c[nH]c3ccccc23)C(=O)N[C@@H](C)C(N)=O)NC(=O)[C@H](CC(C)C)NC(=O)[C@H](CCC(N)=O)NC(=O)[C@H](C)NC(=O)[C@H](Cc2c[nH]c3ccccc23)NC(=O)[C@H](Cc2ccc(O)cc2)NC(=O)[C@H](C)NC1=O)[C@@H](C)O (single isomer, unassigned) [compound 120] | 0.01 to 0.1 | < 0.01 | 0.1 to 1 | 0.01 to 0.1 | 2 | 11 | 20 | 30 | 0 | 0 | 6
4 | CC(=O)N[C@@H](CC(C)C)C(=O)N[C@H](C(=O)N[C@@H](Cc1ccccc1)C(=O)N[C@]1(C)CCCCCCC=CCCC[C@@](C)(C(=O)N[C@@H](CO)C(=O)N[C@H](C(=O)N[C@@H](C)C(N)=O)C(C)C)NC(=O)[C@H](CC(C)C)NC(=O)[C@H](CCC(N)=O)NC(=O)[C@H](C)NC(=O)[C@H](Cc2c[nH]c3ccccc23)NC(=O)[C@H](Cc2ccc(O)cc2)NC(=O)[C@H](C(C)C)NC1=O)[C@@H](C)O (single isomer, unassigned) [compound 139] | < 0.01 | < 0.01 | 0.1 to 1 | 0.01 to 0.1 | 1 | 2 | 9 | 18 | −2 | −1 | −1
5 | CC(=O)N[C@@H](CC(C)C)C(=O)N[C@H](C(=O)N[C@@H](Cc1ccccc1)C(=O)N[C@]1(C)CCCCCCC=CCCC[C@@](C)(C(=O)N[C@@H](CO)C(=O)N[C@H](C(=O)N[C@@H](CO)C(N)=O)C(C)C)NC(=O)[C@H](CC(C)C)NC(=O)[C@H](CCC(N)=O)NC(=O)[C@H](C)NC(=O)[C@H](Cc2c[nH]c3ccccc23)NC(=O)[C@H](Cc2ccc(O)cc2)NC(=O)[C@H](C(C)C)NC1=O)[C@@H](C)O (single isomer, unassigned) [compound 142] | < 0.01 | < 0.01 | 0.01 to 0.1 | 0.01 to 0.1 | 1 | 2 | 15 | 20 | 1 | 1 | 3
6 | CC(=O)N[C@@H](CC(C)C)C(=O)N[C@H](C(=O)N[C@@H](Cc1ccccc1)C(=O)N[C@]1(C)CCCCCCC=CCCC[C@@](C)(C(=O)N[C@@H](CO)C(=O)N[C@@H](C)C(=O)N[C@@H](CO)C(N)=O)NC(=O)[C@H](CC(C)C)NC(=O)[C@H](CCC(N)=O)NC(=O)[C@H](C)NC(=O)[C@H](Cc2c[nH]c3ccccc23)NC(=O)[C@H](Cc2ccc(O)cc2)NC(=O)[C@H](C(C)C)NC1=O)[C@@H](C)O (single isomer, unassigned) [compound 144] | < 0.01 | < 0.01 | 0.1 to 1 | 0.01 to 0.1 | 1 | 4 | 10 | 16 | 1 | −1 | 2
7 | CC(=O)N[C@@H](CC(C)C)C(=O)N[C@H](C(=O)N[C@@H](Cc1ccc(F)c(F)c1)C(=O)N[C@]1(C)CCCCCCC=CCCC[C@@](C)(C(=O)N[C@@H](CO)C(=O)N[C@@H](C)C(=O)N[C@@H](C)C(N)=O)NC(=O)[C@H](CC(C)C)NC(=O)[C@H](CCC(N)=O)NC(=O)[C@H](C)NC(=O)[C@H](Cc2c[nH]c3ccccc23)NC(=O)[C@H](Cc2ccc(O)cc2)NC(=O)[C@H](CCC(=O)O)NC1=O)[C@@H](C)O (single isomer, unassigned) [compound 158] | < 0.01 | < 0.01 | 0.1 to 1 | 0.01 to 0.1 | 1 | – | 5 | 16.33 | 0 | −2 | –
8 | CC[C@H](C)[C@H](NC(=O)[C@H](C)NC(=O)[C@H](C)NC(=O)[C@]1(C)CCCC=CCCCCCC[C@@](C)(NC(=O)[C@H](Cc2ccccc2)NC(=O)[C@@H](NC(=O)[C@H](CCC(=O)O)NC(C)=O)[C@@H](C)O)C(=O)N[C@@H](CCC(=O)O)C(=O)N[C@@H](Cc2c[nH]cn2)C(=O)N[C@@H](Cc2c[nH]c3ccccc23)C(=O)N[C@@H](C)C(=O)N[C@@H](CCC(N)=O)C(=O)N[C@@H](CC(C)C)C(=O)N1)C(=O)N[C@H](C)C(N)=O (single isomer, unassigned) [compound 175] | < 0.01 | < 0.01 | 0.1 to 1 | 0.01 to 0.1 | 1 | 5 | 12 | 21 | 3 | 1 | 0
